Measured values taken from paper PMC10673563, “In Vitro and In Vivo Biological Evaluation of Indole-thiazolidine-2,4-dione Derivatives as Tyrosinase Inhibitors” (Molecules, 2023).

Columns and labels:
[1] = tested on: melanogenesis in B16F10 cells; experiment: Melanin content in B16F10 cells; type: cell-based; details: 16 and 32 μM
Method: B16F10 cell treatment was consistent with the above method. The harvested cells were suspended into NaOH (1 M, 200 μL). After boiling for 1 h, the mixture was measured to determine the absorbance change at wavelength of 405 nm.

tyrosinase [2] = target: T1, tyrosinase (Agaricus bisporus, UniProt C7FF04); experiment: CD spectra, secondary structure content of tyrosinase; design: species or system mushroom
T1 construct: purchased Sigma-Aldrich (Shanghai, China)
Method: CD spectra, one widely used method for determining the secondary structure of protein, were applied to assay the effects of 5w on the conformation change of tyrosinase. The CD spectra of the tyrosinase–compound 5w mixture were monitored and two negative characteristic bands around 210 and 222 nm appeared (Figure 4), which represented typical features of α-helixes.
The CD spectra of tyrosinase (33 μM) and tyrosinase–compound 5w mixture were measured at room temperature, respectively, based on previous reports. The test wavelengths were 195~250 nm.
Target sequence in this assay (C7FF04 1-392): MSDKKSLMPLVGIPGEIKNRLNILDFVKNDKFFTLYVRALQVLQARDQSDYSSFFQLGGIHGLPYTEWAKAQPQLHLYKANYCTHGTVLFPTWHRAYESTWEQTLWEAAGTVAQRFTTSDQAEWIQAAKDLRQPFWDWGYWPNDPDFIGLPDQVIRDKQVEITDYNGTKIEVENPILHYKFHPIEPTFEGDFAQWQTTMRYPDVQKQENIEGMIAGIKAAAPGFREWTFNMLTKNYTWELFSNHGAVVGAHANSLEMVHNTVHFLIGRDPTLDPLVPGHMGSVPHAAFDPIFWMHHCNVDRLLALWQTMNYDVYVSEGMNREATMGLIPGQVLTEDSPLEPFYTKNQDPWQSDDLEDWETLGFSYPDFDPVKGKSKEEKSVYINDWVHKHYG

B16F10 cells = experiment: Cell cytotoxicity (MTT); type: cell-based; details: 4~32 μM, 48 h
Method: The effects of compound 5w and kojic acid on the cells’ viability were determined using the MTT method. B16F10 cells (5000 cells/well) were seeded into the 96-well plate for 24 h, followed by the treatment of compound 5w or kojic acid (4~32 μM) for another 48 h. Then, MTT solution (0.5 mg/mL) was added and incubated for 4 h. DMSO (100 μL) was used to dissolve the violet precipitates, and then the mixture was measured for its absorbance at 570 nm.

[3] = tested on: melanogenesis in zebrafish; experiment: Melanin content in zebrafish (microscope, Image J); type: in vivo
Method: The embryos treated with compound 5w or kojic acid were observed under a microscope and the melanin content was assayed using Image J software.

Mushroom tyrosinase = target: T2, Mushroom tyrosinase (Agaricus bisporus, UniProt C7FF04); experiment: Tyrosinase inhibitory activity assay (L-DOPA, absorbance 475 nm); type: biochemical
T2 construct: purchased Sigma-Aldrich (Shanghai, China)
T2 sequence (C7FF04 1-392): as above
Method: The tyrosinase inhibitory activities of compounds 5a~5z were determined according to previous reports. In brief, 10 μL of compound was added into 140 μL of tyrosinase, incubated for 5 min at room temperature. Then, 50 μL of L-DOPA was added, followed by the measurement of absorbance change at 475 nm. The inhibition rate at different concentrations was calculated and compared to the blank control.

tyrosinase [4] = target: T1, tyrosinase; experiment: Three-dimensional fluorescence spectra; design: species or system mushroom; details: 5w 8.5 μM
Method: Three-dimensional fluorescence spectra were employed to monitor the effects of compound 5w on the conformation and microenvironment changes in tyrosinase. In the 3D fluorescence spectra of tyrosinase (Figure 5A), two characteristic peaks 1 and 2 appeared, which corresponded to Tyr and Trp residues and polypeptide strand transition, respectively.
Based on a previous report, the 3D fluorescence spectra of tyrosinase (0.17 mg/mL) and tyrosinase–compound 5w mixture were measured, respectively, at room temperature. The test wavelengths were 200–400 nm.
Target sequence in this assay (C7FF04 1-392 limits assumed): as the sequence (C7FF04 1-392) above

tyrosinase [5] = target: T1, tyrosinase; experiment: Fluorescence quenching titration (Stern–Volmer); type: binding, mushroom
Method: Fluorescence quenching, an effective method for monitoring the binding of a compound to its target protein, was operated to examine the binding of compound 5w with tyrosinase.
For a further understanding of the binding process of compound 5w with tyrosinase, the fluorescence quenching manner was assayed using the Stern–Volmer equation. In the Stern–Volmer plots of compound 5w (Figure 3D), the lines at different temperatures presented a good linear, which illustrated only one quenching manner in their binding process. Although the quenching constant (Ksv) values were slightly proportional to temperature, the quench rate constant (Kq) values at different temperatures were all higher than 2 × 10^10 L mol^−1 S^−1, which is the maximum scattering collision quenching constant (Table 2). […] In addition, the number of binding sites (n) was obtained to be about one, meaning there was only one binding site between compound 5w and tyrosinase (Table 2).
According to a previous report, the fluorescence quenching titration was run. In total, 1 μL of 5w solution was progressively titrated into 2 mL of tyrosinase (0.17 mg/mL), followed by fluorescence spectra determination (λex = 280 nm) at temperatures of 298, 303, and 308 K, respectively. The quenching parameters were obtained using the Stern–Volmer equation.
Target sequence in this assay (C7FF04 1-392 limits assumed): as the sequence (C7FF04 1-392) above

[6] = tested on: tyrosinase activity in zebrafish; experiment: Tyrosinase activity in zebrafish; type: in vivo
Method: The embryos treated with compound 5w or kojic acid were lysed in PBS, followed by centrifugation to obtain the supernatant. The appropriate amount of supernatant, equal L-DOPA (5 mg/mL), was added and the absorbance at 475 nm was determined.

[7] = tested on: tyrosinase activity in B16F10 cells; experiment: Tyrosinase activity in B16F10 cells; type: cell-based; details: 16 and 32 μM
Method: The tyrosinase inhibitory activity of 5w in B16F10 cells was determined. B16F10 cells (1 × 10^5 cells/well) were seeded into the 6-well plate for 24 h and subsequently treated with compound 5w or kojic acid for another 48 h. Then, the harvested cells were suspended into the appropriate amount of Triton X-100 (1%) and frozen for 1 h at −80 °C. After it had thawed, the mixture was centrifuged to collect the supernatant. Then, its protein concentration was determined using a BCA Kit. After 20 μL of L-DOPA (10 mM) was added into 80 μL of protein solution, the absorbance change at 475 nm was measured.

tyrosinase [8] = target: T1, tyrosinase; experiment: Inhibition kinetics (Lineweaver–Burk plots); type: biochemical, mushroom
Method: To understand the inhibition mechanism of this kind of compound on tyrosinase, the inhibition kinetics of the preferable compound 5w were investigated. […] With the increasing concentrations of 5w, the Y-intercept of corresponding lines increased and the X-intercept decreased, meaning the decrease of Vmax and Km.
The kinetics studies of 5w were conducted using the above experimental procedure. The absorbance changes in the mixture containing 5w (0, 4, 8, and 16 μM), tyrosinase (66.7 U/mL), and L-DOPA (2, 4, 6, and 8 mM) were recorded, respectively. The data were analyzed using Lineweaver–Burk plots.
Target sequence in this assay (C7FF04 1-392 limits assumed): as the sequence (C7FF04 1-392) above

## N#Cc1cccc(/C=C2\SC(=O)N(CC(=O)NCCc3c[nH]c4ccccc34)C2=O)c1 [5w]
[1]
  anti-melanogenesis activity compared with kojic acid: obvious higher
[1]; 48 h
  melanogenesis in B16F10 cells: could inhibit
Tyrosinase [2]; [Enzyme]: [5w] 1: 1
  Random Coil (%): 32.5%
  α-Helix (%): 8.8%
  β-Sheet (%): 33.6%
  β-Turn (%): 19.9%
Tyrosinase [2]; [Enzyme]: [5w] 1: 2
  Random Coil (%): 34.5%
  α-Helix (%): 8.9%
  β-Sheet (%): 33.1%
  β-Turn (%): 20.0%
Tyrosinase [2]; [Enzyme]: [5w] 1: 3
  Random Coil (%): 35.5%
  α-Helix (%): 9.0%
  β-Sheet (%): 32.7%
  β-Turn (%): 20.1%
B16F10 cells
  effect on cells' viability: obvious effects
[3]; Image J
  decrease in grayscale values compared with kojic acid: displayed a higher decrease
[3]; Image J, compared to control embryo
  grayscale values of whole embryos: decrease in grayscale values
[3]; embryo photos, compared to control embryo
  pigmentation of embryo (eyes, yolk sac, notum): pigmentation decrease
Mushroom tyrosinase
  IC50: 11.2 µM
Mushroom tyrosinase; initial concentration of 32 μM
  inhibition at 32 µM: > 70%
Tyrosinase [4]
  3D fluorescence characteristic peaks 1 and 2 of tyrosinase: reduced significantly accompanied by a slight shift
Tyrosinase [5]
  fluorescence quenching process: static quenching process
Tyrosinase [5]; T 298 K
  KSV: 3.77 ×10^4 Lmol^−1
  Kq: 3.77 ×10^12 Lmol^−1
  n (number of binding sites): 0.72
Tyrosinase [5]; T 303 K
  KSV: 3.84 ×10^4 Lmol^−1
  Kq: 3.84 ×10^12 Lmol^−1
  n (number of binding sites): 0.74
Tyrosinase [5]; T 308 K
  KSV: 4.47 ×10^4 Lmol^−1
  Kq: 4.47 ×10^12 Lmol^−1
  n (number of binding sites): 0.82
Tyrosinase [5]; at different temperatures (298, 303, 308 K)
  quench rate constant (Kq): higher than 2 × 10^10 L mol^−1 S^−1
[6]; concentration of 10 μM
  anti-tyrosinase activity in zebrafish compared with kojic acid: higher anti-tyrosinase activity than kojic acid
[6]; zebrafish embryos
  tyrosinase activity in zebrafish: could reduce the tyrosinase activity in zebrafish
[7]
  cellular anti-tyrosinase activity compared with kojic acid: obvious higher
[7]; 48 h
  cellular tyrosinase activity: could inhibit
Tyrosinase [8]; Lineweaver–Burk plots
  inhibition type: mixed-type tyrosinase inhibitor
Tyrosinase [8]; from plots of slope vs. inhibitor concentration, read-out: inhibition constant (Ki)
  Ki: 11.7 µM
